Measurements as given in ChEMBL document CHEMBL3102764, “Discovery of 3-(trifluoromethyl)-1H-pyrazole-5-carboxamide activators of the M2 isoform of pyruvate kinase (PKM2)” (Bioorg Med Chem Lett, 2014).
Values belong to the compound of their own block, whether it stands above or below them.

Assays:
Pyruvate kinase PKM [1] = molecular target: T1, Pyruvate kinase PKM (Homo sapiens, UniProt P14618); assay: Activation of PKM2 in human A549 cells; type: cell-based
Target sequence in this assay (P14618 2-531 limits assumed): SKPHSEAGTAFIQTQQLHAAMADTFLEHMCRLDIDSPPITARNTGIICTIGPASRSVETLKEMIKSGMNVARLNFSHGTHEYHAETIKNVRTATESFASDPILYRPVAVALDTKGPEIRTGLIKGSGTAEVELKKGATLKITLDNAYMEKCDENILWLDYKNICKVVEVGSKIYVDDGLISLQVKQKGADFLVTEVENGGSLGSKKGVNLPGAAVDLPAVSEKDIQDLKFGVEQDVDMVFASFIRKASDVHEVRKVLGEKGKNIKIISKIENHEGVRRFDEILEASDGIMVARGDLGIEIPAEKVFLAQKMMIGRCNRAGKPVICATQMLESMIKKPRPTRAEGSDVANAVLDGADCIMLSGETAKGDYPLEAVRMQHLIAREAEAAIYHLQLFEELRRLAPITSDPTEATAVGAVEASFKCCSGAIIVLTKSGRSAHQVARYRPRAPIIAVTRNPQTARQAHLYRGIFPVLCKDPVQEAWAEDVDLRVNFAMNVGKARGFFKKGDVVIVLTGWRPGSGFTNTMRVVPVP

Pyruvate kinase PKM [2] = molecular target: T1, Pyruvate kinase PKM; assay: Activation of PKM2 in human NCI-H1299 cells; type: cell-based
Target sequence in this assay (P14618 2-531 limits assumed): as above

Pyruvate kinase PKM [3] = molecular target: T1, Pyruvate kinase PKM; assay: Activation of PKM2 (unknown origin) assessed as PEP conversion to pyruvate measured as concentration required for 50% activation by luminescence assay
Target sequence in this assay (P14618 whole entry): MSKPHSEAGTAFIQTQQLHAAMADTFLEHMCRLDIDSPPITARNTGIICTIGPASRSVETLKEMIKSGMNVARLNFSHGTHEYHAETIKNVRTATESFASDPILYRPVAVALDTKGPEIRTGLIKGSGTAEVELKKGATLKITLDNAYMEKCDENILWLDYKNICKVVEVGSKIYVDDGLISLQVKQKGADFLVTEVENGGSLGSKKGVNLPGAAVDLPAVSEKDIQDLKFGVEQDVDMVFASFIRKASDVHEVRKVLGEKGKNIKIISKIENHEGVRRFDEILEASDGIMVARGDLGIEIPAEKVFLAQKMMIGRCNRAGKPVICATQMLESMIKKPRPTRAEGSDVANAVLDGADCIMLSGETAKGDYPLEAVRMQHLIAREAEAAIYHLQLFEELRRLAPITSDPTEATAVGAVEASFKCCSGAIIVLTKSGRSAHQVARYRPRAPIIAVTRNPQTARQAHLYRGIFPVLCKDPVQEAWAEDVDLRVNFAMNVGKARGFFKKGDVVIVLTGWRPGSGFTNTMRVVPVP

Structure (SMILES): O=C(c1cc(Br)c[nH]1)N(Cc1ccc(F)cc1)CC1CCC1
AC50 (Pyruvate kinase PKM [3]; read-out: AC50): 12.1 µM

Structure (SMILES): N#Cc1cc(C(=O)N(Cc2ccc(O)cc2F)CC2CCC2)[nH]n1
AC50 (Pyruvate kinase PKM [3]; read-out: AC50): 4.47 µM

Structure (SMILES): O=C(c1cc(Br)c[nH]1)N(Cc1ccccc1F)CC1CCC1
AC50 (Pyruvate kinase PKM [3]; read-out: AC50): 3.9 µM

Structure (SMILES): O=C(c1cc(Cl)n[nH]1)N(Cc1ccc(O)cc1F)CC1CCC1
Activity (Pyruvate kinase PKM [1]): 0.45 µM
Activity (Pyruvate kinase PKM [2]): 0.3 µM

Structure (SMILES): CCCCCN(Cc1ccccc1)C(=O)c1cc(Br)c[nH]1
AC50 (Pyruvate kinase PKM [3]; read-out: AC50): 4.45 µM

Structure (SMILES): O=C(c1cc(Br)c[nH]1)N(Cc1cccc(F)c1)CC1CCC1
AC50 (Pyruvate kinase PKM [3]; read-out: AC50): 3.85 µM

Structure (SMILES): O=C(c1cc(Br)c[nH]1)N(Cc1ccc(Cl)cc1)CC1CCC1
AC50 (Pyruvate kinase PKM [3]): Not Active

Structure (SMILES): O=C(c1cc(Br)c[nH]1)N(Cc1ccccc1)CC1CCCC1
AC50 (Pyruvate kinase PKM [3]): Not Active

Structure (SMILES): O=C(c1cc(Br)n[nH]1)N(Cc1cccc2[nH]cnc12)CC1CCC1
Activity (Pyruvate kinase PKM [1]): 1.99 µM
Activity (Pyruvate kinase PKM [2]): 1.42 µM

Structure (SMILES): O=C(c1cc(Br)c[nH]1)N(Cc1ccc(O)cc1F)CC1CCC1
AC50 (Pyruvate kinase PKM [3]; read-out: AC50): 0.75 µM

Structure (SMILES): CCCN(Cc1ccccc1)C(=O)c1cc(Br)c[nH]1
AC50 (Pyruvate kinase PKM [3]; read-out: AC50): 6 µM

Structure (SMILES): O=C(c1cc(Br)n[nH]1)N(Cc1ccc(O)cc1F)CC1CCC1
AC50 (Pyruvate kinase PKM [3]; read-out: AC50): 0.034 µM
Activity (Pyruvate kinase PKM [1]): 0.06 µM
Activity (Pyruvate kinase PKM [2]): 0.055 µM

Structure (SMILES): O=C(c1cc(Br)c[nH]1)N(Cc1ccccc1)CC1CCC1
AC50 (Pyruvate kinase PKM [3]; read-out: AC50): 2.3 µM

Second part, the compound after the results:

Activity (Pyruvate kinase PKM [1]): 0.308 µM
Activity (Pyruvate kinase PKM [2]): 0.364 µM
Structure (SMILES): O=C(c1cc(C(F)(F)F)n[nH]1)N(Cc1cccc2[nH]ccc12)CC1CCC1

AC50 (Pyruvate kinase PKM [3]; read-out: AC50): 1.71 µM
Structure (SMILES): O=C(c1cc(Br)c[nH]1)N(Cc1ccc(O)cc1)CC1CCC1

AC50 (Pyruvate kinase PKM [3]; read-out: AC50): 3.05 µM
Activity (Pyruvate kinase PKM [1]): 12.9 µM
Activity (Pyruvate kinase PKM [2]): 16.6 µM
Structure (SMILES): O=C(c1cc(Br)n[nH]1)N(Cc1cccc2[nH]c(=O)sc12)CC1CCC1

AC50 (Pyruvate kinase PKM [3]; read-out: AC50): 1.29 µM
Structure (SMILES): O=C(c1cc(Br)c[nH]1)N(Cc1ccccc1O)CC1CCC1

AC50 (Pyruvate kinase PKM [3]; read-out: AC50): 36 µM
Structure (SMILES): O=C(NCc1ccccc1)c1cc(Br)c[nH]1

AC50 (Pyruvate kinase PKM [3]; read-out: AC50): 12.2 µM
Structure (SMILES): O=C(c1cc(Br)c[nH]1)N(Cc1ccccc1)CC1CC1

AC50 (Pyruvate kinase PKM [3]): Not Active
Structure (SMILES): COc1ccc(CN(CC2CCC2)C(=O)c2cc(Br)c[nH]2)cc1

AC50 (Pyruvate kinase PKM [3]; read-out: AC50): 6.33 µM
Structure (SMILES): CCCCN(Cc1ccccc1)C(=O)c1cc(Br)c[nH]1

AC50 (Pyruvate kinase PKM [3]; read-out: AC50): > 30 µM
Structure (SMILES): Nc1cc(C(=O)N(Cc2ccc(O)cc2F)CC2CCC2)[nH]n1

Activity (Pyruvate kinase PKM [1]): 0.26 µM
Activity (Pyruvate kinase PKM [2]): 0.22 µM
Structure (SMILES): O=C(c1cc(C(F)(F)F)n[nH]1)N(Cc1ccc(O)cc1F)CC1CCC1

AC50 (Pyruvate kinase PKM [3]): Not Active
Structure (SMILES): Nc1ccc(CN(CC2CCC2)C(=O)c2cc(Br)c[nH]2)cc1

AC50 (Pyruvate kinase PKM [3]; read-out: AC50): 2.93 µM
Activity (Pyruvate kinase PKM [1]): 5.94 µM
Activity (Pyruvate kinase PKM [2]): 6.4 µM
Structure (SMILES): O=C(c1cc(Cl)n[nH]1)N(Cc1cccc2[nH]ncc12)CC1CCC1

AC50 (Pyruvate kinase PKM [3]; read-out: AC50): 0.757 µM
Activity (Pyruvate kinase PKM [1]): 6.73 µM
Structure (SMILES): O=C(c1cc(Cl)n[nH]1)N(Cc1cccc2[nH]ccc12)CC1CCC1

AC50 (Pyruvate kinase PKM [3]): Not Active
Structure (SMILES): CCN(Cc1ccccc1)C(=O)c1cc(Br)c[nH]1

AC50 (Pyruvate kinase PKM [3]; read-out: AC50): 3.03 µM
Structure (SMILES): O=C(c1cc(Br)c[nH]1)N(Cc1cccc(O)c1)CC1CCC1

AC50 (Pyruvate kinase PKM [3]): Not Active
Structure (SMILES): O=C(c1cc(Br)c[nH]1)N(Cc1ccccc1)CC1CCCCC1

AC50 (Pyruvate kinase PKM [3]; read-out: AC50): 3.13 µM
Structure (SMILES): O=C(c1cc(Br)n[nH]1)N(Cc1cccc2[nH]ncc12)CC1CCC1

AC50 (Pyruvate kinase PKM [3]): Not Active
Structure (SMILES): N#Cc1ccc(CN(CC2CCC2)C(=O)c2cc(Br)c[nH]2)cc1
